Earlier results in patent US20140255503A1, “PHARMACEUTICAL COMPOSITION OF OMEPRAZOLE” (LABORATORIOS DEL DR. ESTEVE, S.A., priority 2011, published 2014).

Columns and labels:
[1] = not given; remark: listed apart in the source

COc1ccc2[nH]c([S+]([O-])Cc3ncc(C)c(OC)c3C)nc2c1 (stereo not shown) [Omeprazole, 5-methoxy-2-(4-methoxy-3,5-dimethylpyridin-2-ylmethylsulfinyl)-1H-benzimidazole]
Solubility in acetone (acetone): slightly soluble | Solubility in ethanol (ethanol): freely soluble | Solubility in isopropanol (isopropanol): slightly soluble | Solubility in methanol (methanol): freely soluble | Solubility in water (water): very slightly soluble | Stability in acid media ([1]; acid media): rapidly degraded | Stability under alkaline conditions ([1]; alkaline conditions): acceptable stability
